Where a name gives a salt, the structure may show the parent alone. Read-outs that look alike come from different tables or passages of the source. Each block holds one compound with its values, some of them ahead of it.
Tests used:
[1] = Enterolignans and conjugates in plasma and milk of sheep fed flaxseed-enriched diets (UPLC-QTOF-MS); format: in vivo; details: qualitative
Experimental: Eighteen lactating […] (3-4 months in lactation and weighing 66-105 kg) were used and milked twice daily. The animals were parasite-free, and drinking water was available ad libitum. The experimental design was performed with animals stratified according to milk production and number of days post-partum, and then randomly distributed in the experimental groups. The animals were divided into 3 diet groups of 6 animals each. One group of sheep was fed a standard diet, a second group was fed a lignan-enriched diet containing 10% whole flaxseed (Nutricor SL, Leon, Spain) for 2 weeks, and a third group was fed a lignan-enriched diet containing 15% whole flaxseed (Nutricor SL) also for 2 weeks (diet composition is shown in Table 1). Flaxseed amounts and duration of treatment were chosen based on previous studies on cows. Whole flaxseed composition included 20.2% of crude protein, 13.1% of crude fiber and 28.5% of ether extract. All sheep were fed ad libitum twice per day after each milking (09.00 and 18.00 h). Feed intake was not affected by the different experimental diets. […] [29]. The dry residue was dissolved in methanol and filtered (0.22 μm) prior to injection into the ultra-performance liquid chromatography quadrupole time-of-flight mass spectrometry (UPLC-QTOF-MS) equipment. Analyses were developed using an Agilent 1290 Infinity LC system coupled to a 6550 Accurate-Mass QTOF (Agilent Technologies, Waldbronn, Germany) and using an electrospray interface (Jet Stream Technology). Analytical conditions were as previously described with some modifications. Briefly, 5 μL of sample was injected onto a reverse phase Poroshell 120 EC-C18 column (3 × 100 mm, 2.7 μm) (Agilent Technologies) operating at 30 °C. […] The electrospray interface parameters were as follows: gas temperature, 280 °C; drying gas flow, 9 L/min; nebulizer pressure, 35 psi; sheath gas temperature, 400 °C; sheath gas flow, 12 L/min. Spectra were acquired in the m/z range from 100 to 1100 in negative mode and fragmentor voltage was 100 V. Data were processed using Mass Hunter Qualitative Analysis software (version B.06.00 Agilent Technologies). A target screening strategy was applied to plasma and milk samples for the qualitative screening of possible enterolignan-related metabolites. A list of target compounds (60 possible metabolites) covering different phase I and phase II metabolites of parent compound and microbial metabolites was sought in all the samples after MS full-acquisition. Screening was based on mass filtering at the exact mass of the studied compound using narrow mass extraction windows (0.01 m/z). Identification was possible from the valuable information given in QTOF-MS acquisition mode which provides possible molecular formulae for the compounds based on accurate mass and isotopic pattern (Table 2). Additionally, a targeted MS/MS experiment offered fragmentation information for greater reliability in the compound identification process. When possible, direct comparison with authentic standards was performed. Quantification of enterolactone and enterodiol was determined by interpolation in the calibration curve obtained from their own available standards. These metabolites were quantified in MS by peak area integration of their extracted ion chromatograms. Calibration curves were linear from the limit of quantification (LOQ) to 500 nmol/L. […] In the case of conjugated metabolites accurate quantification was not possible due to the absence of available standards and so only qualitative results are provided.

[2] = Plasma pharmacokinetics of danofloxacin after i.m. administration to lactating sheep fed control or flaxseed-enriched diets; format: in vivo; details: female, Assaf, im, 1.25 mg/kg, 1.25 mg/kg i.m., mean ± SD; for AUC(0-inf) / Cmax / MRT / Tmax: n = 6; for AUC(0-t): n = 6, read-out: AUC 0–24
Experimental: (§1) Eighteen lactating […] (3-4 months in lactation and weighing 66-105 kg) were used and milked twice daily. The animals were parasite-free, and drinking water was available ad libitum. The experimental design was performed with animals stratified according to milk production and number of days post-partum, and then randomly distributed in the experimental groups. The animals were divided into 3 diet groups of 6 animals each. One group of sheep was fed a standard diet, a second group was fed a lignan-enriched diet containing 10% whole flaxseed (Nutricor SL, Leon, Spain) for 2 weeks, and a third group was fed a lignan-enriched diet containing 15% whole flaxseed (Nutricor SL) also for 2 weeks (diet composition is shown in Table 1). Flaxseed amounts and duration of treatment were chosen based on previous studies on cows. Whole flaxseed composition included 20.2% of crude protein, 13.1% of crude fiber and 28.5% of ether extract. All sheep were fed ad libitum twice per day after each milking (09.00 and 18.00 h). Feed intake was not affected by the different experimental diets. After 2 weeks on the experimental diets, animals in all groups received a single therapeutic dose (1.25 mg/kg, i.m.) of danofloxacin (Advocin 2.5%, Pfizer, Cedex, France). Blood samples (5 mL) were collected from the jugular vein in commercial blood collection tubes (Vacutainer, 10 mL; […] The pharmacokinetic schedule was based on previous studies from our group. […] A complete evacuation of the udder was carried out at each sampling to avoid any dilution effect. Samples were stored at - 20 °C until analysis. Conditions for HPLC analysis of danofloxacin concentrations in plasma and milk were modified according to previously published methods. […] To each 100 μL aliquot of sample, 600 μL of chloroform was added. […] The residue was reconstituted in 100 μL of methanol and injected into the HPLC system. The system consisted of a Waters 600 pump, a Waters 717 plus autosampler, and a Waters 486 fluorescence detector (Waters Corporation, Milford, MA). […] The mobile phase consisted of 25 mM orthophosphoric acid supplemented with 0.1% triethylamine (pH 3.0): acetonitrile (80:20 v/v) at a flow rate of 1.6 mL/min. Sample detection was performed by fluorescence detection at 338 nm (excitation) and 425 nm (emission). Integration was carried out using MILLENNIUM 32 software (Waters). […] Correlation coefficients (r) for danofloxacin ranged between 0.998 and 0.984 for the calibration curves in plasma and milk curves respectively. LOQ were 1.9 ng/mL for sheep plasma and 19 ng/mL for sheep milk. Peak concentration (Cmax) and time-peak concentrations (Tmax) were read from the plotted concentration-time curve for each animal. The area under the plasma concentration-time curves (AUC) was calculated using the linear trapezoidal rule. Mean residence time (MRT) was calculated by the linear trapezoidal rule with extrapolation to time infinity, using the formula: MRT = AUMC/AUC, where AUMC is the mean area under the first moment curve. These calculations were made with a computer program (PK solution 2.0, Summit Research Services, Ashland, OH) and determined by non-compartmental analyses.

[3] = Milk pharmacokinetics (secretion into milk) of danofloxacin after i.m. administration to lactating sheep fed control or flaxseed-enriched diets; format: in vivo; details: 1.25 mg/kg i.m.; for Kp / AUC(0-t) / AUC(0-inf) / Cmax / MRT / Tmax: female, Assaf, sheep, 1.25 mg/kg, mean ± SD, n = 6; for Kp: milk and plasma, intramuscular, read-out: AUC 0–24 milk/plasma; for AUC(0-t) / AUC(0-inf) / Cmax / MRT / Tmax: milk, im; for AUC(0-t): read-out: AUC 0–24
Experimental: as §1

[4] = effect of isoflavones present in soy; cited from earlier work
[5] = sheep fed flaxseed-enriched diets vs. control diet

Compound: O=C(O)[C@H]1O[C@@H](Oc2cccc(C[C@@H](CO)[C@H](CO)Cc3cccc(O)c3)c2)[C@H](O)[C@@H](O)[C@@H]1O [Enterodiol- glucuronide]
Localization (matrix in which the compound was identified) [1]: Plasma

Compound: O=S(=O)(O)Oc1cccc(C[C@@H](CO)[C@H](CO)Cc2cccc(O)c2)c1 [Enterodiol- sulfate]
Localization (matrix in which the compound was identified) [1]: Plasma

Compound: OC[C@H](Cc1cccc(O)c1)[C@H](CO)Cc1cccc(O)c1 [Enterodiol]
Localization (matrix in which the compound was identified) [1]: Plasma, milk

Compound: O=C1OC[C@H](Cc2cccc(O)c2)[C@H]1Cc1cccc(O)c1 [Enterolactone]
Localization (matrix in which the compound was identified) [1]: Plasma, milk

AUC(0-inf) ([2]; control diet): 1750 ± 380 ng·h/mL
Cmax ([2]; control diet): 310 ± 50 ng/mL
MRT ([2]; control diet): 4.22 ± 0.73 h
Tmax ([2]; control diet): 1.5 ± 0.5 h
AUC(0-t) ([2]; control diet): 1740 ± 370 ng·h/mL
AUC(0-inf) ([2]; flaxseed 10% diet): 1930 ± 250 ng·h/mL
Cmax ([2]; flaxseed 10% diet): 310 ± 60 ng/mL
MRT ([2]; flaxseed 10% diet): 4.77 ± 0.49 h
Tmax ([2]; flaxseed 10% diet): 1.5 ± 0.5 h
AUC(0-t) ([2]; flaxseed 10% diet): 1920 ± 260 ng·h/mL
AUC(0-inf) ([2]; flaxseed 15% diet): 1810 ± 150 ng·h/mL
Cmax ([2]; flaxseed 15% diet): 300 ± 40 ng/mL
MRT ([2]; flaxseed 15% diet): 4.95 ± 0.39 h
Tmax ([2]; flaxseed 15% diet): 1.16 ± 0.37 h
AUC(0-t) ([2]; flaxseed 15% diet): 1790 ± 150 ng·h/mL
Kp ([3]; control diet): 11 ± 1.95
Kp ([3]; flaxseed 10% diet): 7.81 ± 2.08
Kp ([3]; flaxseed 15% diet): 7.57 ± 2.1
AUC(0-t) ([3]; control diet): 19200 ± 5030 ng·h/mL
AUC(0-t) ([3]; flaxseed 10% diet): 14600 ± 1790 ng·h/mL
AUC(0-t) ([3]; flaxseed 15% diet): 13400 ± 3070 ng·h/mL
AUC(0-inf) ([3]; control diet): 19400 ± 5120 ng·h/mL
Cmax ([3]; control diet): 2950 ± 740 ng/mL
MRT ([3]; control diet): 5.35 ± 0.87 h
Tmax ([3]; control diet): 2.66 ± 0.94 h
AUC(0-inf) ([3]; flaxseed 10% diet): 14900 ± 1860 ng·h/mL
Cmax ([3]; flaxseed 10% diet): 2200 ± 350 ng/mL
MRT ([3]; flaxseed 10% diet): 5.25 ± 0.35 h
Tmax ([3]; flaxseed 10% diet): 3 ± 1 h
AUC(0-inf) ([3]; flaxseed 15% diet): 13700 ± 3130 ng·h/mL
Cmax ([3]; flaxseed 15% diet): 1840 ± 440 ng/mL
MRT ([3]; flaxseed 15% diet): 5.54 ± 0.29 h
Tmax ([3]; flaxseed 15% diet): 2.66 ± 0.94 h
Reduction of milk Cmax ([3]; group fed 15% flaxseed vs. control group): ~40%
Reduction of secretion into milk / milk residue ([3]; sheep fed flaxseed diet vs. control): 25–30%
Reduction of AUC0–24 milk-to-plasma ratio [3, 5]: 25–30%
Reduction of milk AUC0–24 [3, 5]: 25–30%
Reduction of milk Cmax [3, 5]: 25–30%
Compound: CN1C[C@@H]2C[C@H]1CN2c1cc2c(cc1F)c(=O)c(C(=O)O)cn2C1CC1 [danofloxacin]
Reduction of danofloxacin residue in ovine milk [4]: 50%

Compound: Enterolactone-glucuronide
Localization (matrix in which the compound was identified) [1]: Plasma

Compound: Enterolactone-sulfate
Localization (matrix in which the compound was identified) [1]: Plasma

Reference: PMC5769330, “Flaxseed-enriched diets change milk concentration of the antimicrobial danofloxacin in sheep” (BMC Veterinary Research, 2018)
